Holding throughout (format): cell-based
What all share (settings): 24 hours of compound treatment, 50 nM and 500 nM tested (concentration behind the class not stated)

The target in assay [1] is T1, WEE1 (Homo sapiens, UniProt P30291+Q96SW2).
T1 construct: endogenous in cells; host or cells: hPBMCs (Milecell Biotechnologies)
Kind of assay: Western-blot assay of substrate protein degradation in hPBMCs, WEE1.

The target in assay [2] is T2, IKZF1 (Homo sapiens, UniProt Q13422+Q96SW2).
T2 construct: endogenous in cells; host or cells: hPBMCs (Milecell Biotechnologies)
T2 sequence (Q13422 whole entry): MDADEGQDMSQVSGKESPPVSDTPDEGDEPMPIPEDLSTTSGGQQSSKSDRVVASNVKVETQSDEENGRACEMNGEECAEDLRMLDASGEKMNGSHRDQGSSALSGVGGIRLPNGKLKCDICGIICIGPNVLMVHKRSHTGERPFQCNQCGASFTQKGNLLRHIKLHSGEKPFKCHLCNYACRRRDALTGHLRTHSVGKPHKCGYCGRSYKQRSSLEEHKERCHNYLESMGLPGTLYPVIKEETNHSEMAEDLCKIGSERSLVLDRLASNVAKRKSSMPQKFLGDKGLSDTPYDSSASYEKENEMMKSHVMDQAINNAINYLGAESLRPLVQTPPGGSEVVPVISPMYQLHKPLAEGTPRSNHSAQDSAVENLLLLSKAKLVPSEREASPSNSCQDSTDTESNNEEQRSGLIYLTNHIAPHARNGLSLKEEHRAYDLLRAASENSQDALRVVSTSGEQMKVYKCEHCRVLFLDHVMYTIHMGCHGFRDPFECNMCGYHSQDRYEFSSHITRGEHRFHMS
T2 sequence (Q96SW2 whole entry): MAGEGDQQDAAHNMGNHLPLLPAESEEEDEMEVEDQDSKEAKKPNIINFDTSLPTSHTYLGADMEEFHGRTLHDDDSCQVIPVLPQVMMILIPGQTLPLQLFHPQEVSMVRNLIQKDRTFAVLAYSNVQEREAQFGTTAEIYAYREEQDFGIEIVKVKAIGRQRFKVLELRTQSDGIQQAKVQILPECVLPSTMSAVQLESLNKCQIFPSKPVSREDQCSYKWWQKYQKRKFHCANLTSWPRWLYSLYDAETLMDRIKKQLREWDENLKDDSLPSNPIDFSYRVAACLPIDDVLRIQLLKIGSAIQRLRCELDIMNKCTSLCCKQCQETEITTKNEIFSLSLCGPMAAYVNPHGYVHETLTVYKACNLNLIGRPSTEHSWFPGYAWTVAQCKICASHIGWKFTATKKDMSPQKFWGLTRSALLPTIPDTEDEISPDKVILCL
T2 sequence (Q16531 whole entry partner): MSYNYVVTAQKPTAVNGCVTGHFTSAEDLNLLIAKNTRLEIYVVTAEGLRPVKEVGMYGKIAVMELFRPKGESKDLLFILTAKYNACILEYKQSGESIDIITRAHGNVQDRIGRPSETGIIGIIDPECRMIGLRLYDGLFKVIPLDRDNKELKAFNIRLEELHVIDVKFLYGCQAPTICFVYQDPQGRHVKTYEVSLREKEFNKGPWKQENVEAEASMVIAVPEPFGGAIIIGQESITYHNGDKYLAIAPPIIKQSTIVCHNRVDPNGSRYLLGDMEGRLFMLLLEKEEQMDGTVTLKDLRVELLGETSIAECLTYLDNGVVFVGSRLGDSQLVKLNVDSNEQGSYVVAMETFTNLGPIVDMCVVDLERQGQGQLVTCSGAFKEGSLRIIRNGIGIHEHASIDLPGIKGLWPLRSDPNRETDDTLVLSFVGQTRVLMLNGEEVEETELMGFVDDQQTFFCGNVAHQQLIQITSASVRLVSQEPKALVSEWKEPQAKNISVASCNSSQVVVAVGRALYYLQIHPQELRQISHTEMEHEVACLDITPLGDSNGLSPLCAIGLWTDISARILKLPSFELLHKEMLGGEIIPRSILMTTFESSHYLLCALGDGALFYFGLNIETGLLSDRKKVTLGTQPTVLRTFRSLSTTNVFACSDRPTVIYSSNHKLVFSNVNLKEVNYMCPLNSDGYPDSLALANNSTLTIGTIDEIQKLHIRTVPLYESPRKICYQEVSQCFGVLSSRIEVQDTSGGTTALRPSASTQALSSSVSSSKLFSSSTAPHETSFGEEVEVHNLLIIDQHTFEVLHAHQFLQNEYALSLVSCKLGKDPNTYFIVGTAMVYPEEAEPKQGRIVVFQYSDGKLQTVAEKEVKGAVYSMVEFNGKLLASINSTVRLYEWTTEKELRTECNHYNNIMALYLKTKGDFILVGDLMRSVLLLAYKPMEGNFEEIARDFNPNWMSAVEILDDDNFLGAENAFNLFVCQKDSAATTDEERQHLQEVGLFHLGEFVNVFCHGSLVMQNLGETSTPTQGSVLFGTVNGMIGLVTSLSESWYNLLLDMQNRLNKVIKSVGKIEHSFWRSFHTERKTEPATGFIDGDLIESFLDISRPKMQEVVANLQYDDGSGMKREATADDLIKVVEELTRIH
In words: Western-blot assay of substrate protein degradation in hPBMCs, IKZF1.

For assay [3], the target named is T3, IKZF2 (Homo sapiens, UniProt Q96SW2+Q9UKS7).
T3 construct: endogenous in cells; host or cells: hPBMCs (Milecell Biotechnologies)
In words: Western-blot assay of substrate protein degradation in hPBMCs, IKZF2.

The target of assay [4] is T4, IKZF3 (Homo sapiens, UniProt Q96SW2+Q9UKT9).
T4 construct: endogenous in cells; host or cells: hPBMCs (Milecell Biotechnologies)
T4 sequence (Q9UKT9 whole entry): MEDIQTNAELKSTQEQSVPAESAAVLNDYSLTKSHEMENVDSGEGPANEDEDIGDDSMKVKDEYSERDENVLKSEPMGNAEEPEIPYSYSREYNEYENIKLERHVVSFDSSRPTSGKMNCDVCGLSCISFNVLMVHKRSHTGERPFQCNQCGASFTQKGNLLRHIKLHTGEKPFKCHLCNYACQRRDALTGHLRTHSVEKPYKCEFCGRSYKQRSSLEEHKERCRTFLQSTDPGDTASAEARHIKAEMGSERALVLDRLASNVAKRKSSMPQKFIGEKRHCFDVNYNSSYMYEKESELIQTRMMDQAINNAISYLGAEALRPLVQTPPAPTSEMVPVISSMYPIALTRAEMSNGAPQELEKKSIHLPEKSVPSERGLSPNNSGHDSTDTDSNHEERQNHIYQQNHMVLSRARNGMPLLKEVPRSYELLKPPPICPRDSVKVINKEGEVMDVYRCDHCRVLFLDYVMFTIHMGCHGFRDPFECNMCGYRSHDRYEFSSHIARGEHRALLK
T4 sequence (Q96SW2 whole entry): as the sequence (Q96SW2 whole entry) above
T4 sequence (Q16531 whole entry partner): as the sequence (Q16531 whole entry partner) above
In words: Western-blot assay of substrate protein degradation in hPBMCs, IKZF3.

For assay [5], the target named is T5, CK1α (Homo sapiens, UniProt P48729+Q96SW2).
T5 construct: endogenous in cells; host or cells: hPBMCs (Milecell Biotechnologies)
T5 sequence (P48729 whole entry): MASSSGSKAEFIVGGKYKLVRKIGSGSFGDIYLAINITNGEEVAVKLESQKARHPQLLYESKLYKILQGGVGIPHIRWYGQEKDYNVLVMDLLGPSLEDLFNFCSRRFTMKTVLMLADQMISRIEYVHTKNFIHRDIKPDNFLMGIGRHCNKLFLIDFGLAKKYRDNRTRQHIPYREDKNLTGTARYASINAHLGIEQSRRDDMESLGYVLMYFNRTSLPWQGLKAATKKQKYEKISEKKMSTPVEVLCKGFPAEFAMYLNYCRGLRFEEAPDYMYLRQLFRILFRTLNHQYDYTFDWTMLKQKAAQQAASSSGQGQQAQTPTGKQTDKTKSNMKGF
T5 sequence (Q96SW2 whole entry): as the sequence (Q96SW2 whole entry) above
T5 sequence (Q16531 whole entry partner): as the sequence (Q16531 whole entry partner) above
Kind of assay: Western-blot assay of substrate protein degradation in hPBMCs, CK1α.

For assay [6], the target named is T6, GSPT1 (Homo sapiens, UniProt P15170+Q96SW2).
T6 construct: endogenous in cells; host or cells: hPBMCs (Milecell Biotechnologies)
T6 sequence (P15170 whole entry): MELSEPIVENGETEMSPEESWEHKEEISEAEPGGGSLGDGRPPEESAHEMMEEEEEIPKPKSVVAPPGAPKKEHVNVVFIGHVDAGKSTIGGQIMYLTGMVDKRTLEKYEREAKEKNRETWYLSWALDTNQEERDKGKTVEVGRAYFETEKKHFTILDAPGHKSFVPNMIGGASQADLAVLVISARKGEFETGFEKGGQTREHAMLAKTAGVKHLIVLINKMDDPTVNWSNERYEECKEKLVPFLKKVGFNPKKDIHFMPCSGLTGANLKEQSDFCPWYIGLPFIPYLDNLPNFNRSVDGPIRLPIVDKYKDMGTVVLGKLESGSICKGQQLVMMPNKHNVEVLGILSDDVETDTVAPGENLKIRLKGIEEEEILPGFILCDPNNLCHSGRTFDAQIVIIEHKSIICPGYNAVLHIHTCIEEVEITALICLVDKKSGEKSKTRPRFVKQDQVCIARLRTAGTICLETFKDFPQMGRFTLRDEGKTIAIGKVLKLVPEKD
T6 sequence (Q96SW2 whole entry): as the sequence (Q96SW2 whole entry) above
T6 sequence (Q16531 whole entry partner): as the sequence (Q16531 whole entry partner) above
In words: Western-blot assay of substrate protein degradation in hPBMCs, GSPT1.

T1 sequence (P30291 whole entry): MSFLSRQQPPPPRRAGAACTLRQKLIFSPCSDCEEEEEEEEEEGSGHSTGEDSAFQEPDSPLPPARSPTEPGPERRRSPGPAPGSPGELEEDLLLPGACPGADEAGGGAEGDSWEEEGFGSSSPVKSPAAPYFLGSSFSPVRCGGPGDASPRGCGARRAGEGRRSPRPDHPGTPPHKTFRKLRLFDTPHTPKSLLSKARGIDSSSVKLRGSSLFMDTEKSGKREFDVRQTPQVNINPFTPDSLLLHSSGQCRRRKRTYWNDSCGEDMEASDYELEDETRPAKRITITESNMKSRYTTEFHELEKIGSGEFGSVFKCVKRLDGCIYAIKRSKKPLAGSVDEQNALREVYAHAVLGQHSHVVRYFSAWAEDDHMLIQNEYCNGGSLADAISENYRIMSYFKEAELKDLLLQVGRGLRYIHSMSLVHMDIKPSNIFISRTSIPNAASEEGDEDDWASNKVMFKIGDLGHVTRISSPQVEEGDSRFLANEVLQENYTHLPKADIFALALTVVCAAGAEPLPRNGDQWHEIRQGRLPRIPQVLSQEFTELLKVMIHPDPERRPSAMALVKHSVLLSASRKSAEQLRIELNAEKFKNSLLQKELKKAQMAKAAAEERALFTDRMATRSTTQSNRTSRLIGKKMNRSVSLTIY
T1 sequence (Q96SW2 whole entry): as the sequence (Q96SW2 whole entry) above
T1 sequence (Q16531 whole entry partner): as the sequence (Q16531 whole entry partner) above

As to `O=C1CCC(N2C(=O)c3ccc(CN4CCC(c5ccc(F)cc5)CC4)cc3C2=O)C(=O)N1` (stereo not drawn) [GT-06374, 2-(2,6-dioxopiperidin-3-yl)-5-((4-(4-fluorophenyl)piperidin-1-yl)methyl)isoindoline-1,3-dione], the “Weel substrate protein remaining %” value in assay [1] was “A (0% ≤ substrate protein remaining % ≤ 80%)”. In addition, the “IKZF 1 substrate protein remaining %” value in assay [2] is reported as “A (0% ≤ substrate protein remaining % ≤ 80%)”. In addition, the “IKZF2 substrate protein remaining %” value in assay [3] is listed as “A (0% ≤ substrate protein remaining % ≤ 80%)”. Moreover, in assay [4], the “IKZF3 substrate protein remaining %” value is given as “B (80%< substrate protein remaining %≤ 100%)”. Moreover, in assay [5], the “CK1a substrate protein remaining %” value is reported as “B (80%< substrate protein remaining %≤ 100%)”. Besides, the “GSPT1 substrate protein remaining %” value in assay [6] is recorded as “A (0% ≤ substrate protein remaining % ≤ 80%)”.
`O=C1CCC(N2C(=O)c3ccc(CN4CCC(c5ccccc5C(F)(F)F)CC4)cc3C2=O)C(=O)N1` (stereo not drawn) [GT-06375, 2-(2,6-dioxopiperidin-3-yl)-5-((4-(2-(trifluoromethyl)phenyl)piperidin-1-yl)methyl)isoindoline-1,3-dione]: the “Weel substrate protein remaining %” value in assay [1] is “A (0% ≤ substrate protein remaining % ≤ 80%)”. Besides, the “IKZF 1 substrate protein remaining %” value in assay [2] is reported as “A (0% ≤ substrate protein remaining % ≤ 80%)”. Moreover, the “IKZF2 substrate protein remaining %” value in assay [3] is recorded as “A (0% ≤ substrate protein remaining % ≤ 80%)”. For the same compound, the “IKZF3 substrate protein remaining %” value in assay [4] is given as “B (80%< substrate protein remaining %≤ 100%)”. The “CK1a substrate protein remaining %” value in assay [5] is “B (80%< substrate protein remaining %≤ 100%)”. Besides, the “GSPT1 substrate protein remaining %” value in assay [6] is listed as “A (0% ≤ substrate protein remaining % ≤ 80%)”.
On to `O=C1CCC(N2C(=O)c3ccc(CN4CC=C(c5cccc(F)c5Cl)CC4)cc3C2=O)C(=O)N1` (stereo not drawn) [GT-06429, 5-((4-(2-chloro-3-fluorophenyl)-3,6-dihydropyridin-1(2H)-yl)methyl)-2-(2,6-dioxopiperidin-3-yl)isoindoline-1,3-dione], for which the “Weel substrate protein remaining %” value in assay [1] is “A (0% ≤ substrate protein remaining % ≤ 80%)”. The “IKZF 1 substrate protein remaining %” value in assay [2] is listed as “A (0% ≤ substrate protein remaining % ≤ 80%)”. Also, the “IKZF2 substrate protein remaining %” value in assay [3] is reported as “A (0% ≤ substrate protein remaining % ≤ 80%)”. Further, the “IKZF3 substrate protein remaining %” value in assay [4] was “A (0% ≤ substrate protein remaining % ≤ 80%)”. The “CK1a substrate protein remaining %” value in assay [5] is on record as “A (0% ≤ substrate protein remaining % ≤ 80%)”. Further, the “GSPT1 substrate protein remaining %” value in assay [6] is listed as “A (0% ≤ substrate protein remaining % ≤ 80%)”.
In the case of `O=C1CCC(N2C(=O)c3ccc(CN4CCN(c5ccccn5)CC4)cc3C2=O)C(=O)N1` (stereo not drawn) [GT-06521, 2-(2,6-dioxopiperidin-3-yl)-5-((4-(pyridin-2-yl)piperazin-1-yl)methyl)isoindoline-1,3-dione], the “Weel substrate protein remaining %” value in assay [1] is listed as “B (80%< substrate protein remaining %≤ 100%)”. In addition, the “IKZF 1 substrate protein remaining %” value in assay [2] is “B (80%< substrate protein remaining %≤ 100%)”. The “IKZF2 substrate protein remaining %” value in assay [3] is “B (80%< substrate protein remaining %≤ 100%)”. Moreover, in assay [4], the “IKZF3 substrate protein remaining %” value is “B (80%< substrate protein remaining %≤ 100%)”. Further, the “CK1a substrate protein remaining %” value in assay [5] is “B (80%< substrate protein remaining %≤ 100%)”. Also, the “GSPT1 substrate protein remaining %” value in assay [6] is “A (0% ≤ substrate protein remaining % ≤ 80%)”.
On to `Cc1cccc(N2CCN(Cc3ccc4c(c3)C(=O)N(C3CCC(=O)NC3=O)C4=O)CC2)n1` (stereo not drawn) [GT-06522, 2-(2,6-dioxopiperidin-3-yl)-5-((4-(6-methylpyridin-2-yl)piperazin-1-yl)methyl)isoindoline-1,3-dione], for which the “Weel substrate protein remaining %” value in assay [1] was “B (80%< substrate protein remaining %≤ 100%)”. In addition, in assay [2], the “IKZF 1 substrate protein remaining %” value was “B (80%< substrate protein remaining %≤ 100%)”. The “IKZF2 substrate protein remaining %” value in assay [3] was “B (80%< substrate protein remaining %≤ 100%)”. Also, the “IKZF3 substrate protein remaining %” value in assay [4] is recorded as “B (80%< substrate protein remaining %≤ 100%)”. Further, the “CK1a substrate protein remaining %” value in assay [5] was “B (80%< substrate protein remaining %≤ 100%)”. The “GSPT1 substrate protein remaining %” value in assay [6] is given as “A (0% ≤ substrate protein remaining % ≤ 80%)”.
As to `O=C1CCC(N2C(=O)c3ccc(CN4CCN(c5cccc(Cl)n5)CC4)cc3C2=O)C(=O)N1` (stereo not drawn) [GT-06523, 5-((4-(6-chloropyridin-2-yl)piperazin-1-yl)methyl)-2-(2,6-dioxopiperidin-3-yl)isoindoline-1,3-dione], the “Weel substrate protein remaining %” value in assay [1] is listed as “B (80%< substrate protein remaining %≤ 100%)”. Further, the “IKZF 1 substrate protein remaining %” value in assay [2] is recorded as “A (0% ≤ substrate protein remaining % ≤ 80%)”. Also, the “IKZF2 substrate protein remaining %” value in assay [3] is on record as “B (80%< substrate protein remaining %≤ 100%)”. For the same compound, the “IKZF3 substrate protein remaining %” value in assay [4] is reported as “B (80%< substrate protein remaining %≤ 100%)”. Moreover, the “CK1a substrate protein remaining %” value in assay [5] is on record as “B (80%< substrate protein remaining %≤ 100%)”. In addition, the “GSPT1 substrate protein remaining %” value in assay [6] is listed as “A (0% ≤ substrate protein remaining % ≤ 80%)”.
As for `O=C1CCC(N2C(=O)c3ccc(CN4CCN(c5ccc(Cl)cn5)CC4)cc3C2=O)C(=O)N1` (stereo not drawn) [GT-06524, 5-((4-(5-chloropyridin-2-yl)piperazin-1-yl)methyl)-2-(2,6-dioxopiperidin-3-yl)isoindoline-1,3-dione], the “Weel substrate protein remaining %” value in assay [1] is listed as “B (80%< substrate protein remaining %≤ 100%)”. Moreover, the “IKZF 1 substrate protein remaining %” value in assay [2] is given as “A (0% ≤ substrate protein remaining % ≤ 80%)”. Moreover, the “IKZF2 substrate protein remaining %” value in assay [3] was “B (80%< substrate protein remaining %≤ 100%)”. Further, in assay [4], the “IKZF3 substrate protein remaining %” value is “B (80%< substrate protein remaining %≤ 100%)”. Besides, the “CK1a substrate protein remaining %” value in assay [5] is reported as “B (80%< substrate protein remaining %≤ 100%)”. Also, the “GSPT1 substrate protein remaining %” value in assay [6] is on record as “A (0% ≤ substrate protein remaining % ≤ 80%)”.
With `O=C1CCC(N2C(=O)c3ccc(CN4CCN(c5cc(Cl)ccn5)CC4)cc3C2=O)C(=O)N1` (stereo not drawn) [GT-06525, 5-((4-(4-chloropyridin-2-yl)piperazin-1-yl)methyl)-2-(2,6-dioxopiperidin-3-yl)isoindoline-1,3-dione], in assay [1], the “Weel substrate protein remaining %” value is reported as “A (0% ≤ substrate protein remaining % ≤ 80%)”. The “IKZF 1 substrate protein remaining %” value in assay [2] is “B (80%< substrate protein remaining %≤ 100%)”. Also, the “IKZF2 substrate protein remaining %” value in assay [3] is “A (0% ≤ substrate protein remaining % ≤ 80%)”. For the same compound, the “IKZF3 substrate protein remaining %” value in assay [4] is “A (0% ≤ substrate protein remaining % ≤ 80%)”. Moreover, the “CK1a substrate protein remaining %” value in assay [5] was “B (80%< substrate protein remaining %≤ 100%)”. The “GSPT1 substrate protein remaining %” value in assay [6] is “A (0% ≤ substrate protein remaining % ≤ 80%)”.
As for `O=C1CCC(N2C(=O)c3ccc(CN4CCN(c5ncccc5F)CC4)cc3C2=O)C(=O)N1` (stereo not drawn) [GT-06526, 2-(2,6-dioxopiperidin-3-yl)-5-((4-(3-fluoropyridin-2-yl)piperazin-1-yl)methyl)isoindoline-1,3-dione], in assay [1], the “Weel substrate protein remaining %” value is recorded as “A (0% ≤ substrate protein remaining % ≤ 80%)”. Moreover, the “IKZF 1 substrate protein remaining %” value in assay [2] is “B (80%< substrate protein remaining %≤ 100%)”. The “IKZF2 substrate protein remaining %” value in assay [3] was “A (0% ≤ substrate protein remaining % ≤ 80%)”. In addition, the “IKZF3 substrate protein remaining %” value in assay [4] is “A (0% ≤ substrate protein remaining % ≤ 80%)”. For the same compound, in assay [5], the “CK1a substrate protein remaining %” value is recorded as “B (80%< substrate protein remaining %≤ 100%)”. Besides, in assay [6], the “GSPT1 substrate protein remaining %” value was “A (0% ≤ substrate protein remaining % ≤ 80%)”.
In the case of `O=C1CCC(N2C(=O)c3ccc(CN4CCN(c5cccc(F)n5)CC4)cc3C2=O)C(=O)N1` (stereo not drawn) [GT-06527, 2-(2,6-dioxopiperidin-3-yl)-5-((4-(6-fluoropyridin-2-yl)piperazin-1-yl)methyl)isoindoline-1,3-dione], the “Weel substrate protein remaining %” value in assay [1] is “A (0% ≤ substrate protein remaining % ≤ 80%)”. For the same compound, the “IKZF 1 substrate protein remaining %” value in assay [2] is given as “B (80%< substrate protein remaining %≤ 100%)”. In addition, the “IKZF2 substrate protein remaining %” value in assay [3] is “A (0% ≤ substrate protein remaining % ≤ 80%)”. In assay [4], the “IKZF3 substrate protein remaining %” value is given as “A (0% ≤ substrate protein remaining % ≤ 80%)”. In addition, the “CK1a substrate protein remaining %” value in assay [5] is listed as “B (80%< substrate protein remaining %≤ 100%)”. For the same compound, the “GSPT1 substrate protein remaining %” value in assay [6] was “A (0% ≤ substrate protein remaining % ≤ 80%)”.
For the compound `O=C1CCC(N2C(=O)c3ccc(CN4CCN(c5ccc(F)cn5)CC4)cc3C2=O)C(=O)N1` (stereo not drawn) [GT-06528, 2-(2,6-dioxopiperidin-3-yl)-5-((4-(5-fluoropyridin-2-yl)piperazin-1-yl)methyl)isoindoline-1,3-dione], the “Weel substrate protein remaining %” value in assay [1] is on record as “A (0% ≤ substrate protein remaining % ≤ 80%)”. Also, in assay [2], the “IKZF 1 substrate protein remaining %” value was “B (80%< substrate protein remaining %≤ 100%)”. Moreover, the “IKZF2 substrate protein remaining %” value in assay [3] is “A (0% ≤ substrate protein remaining % ≤ 80%)”. Also, the “IKZF3 substrate protein remaining %” value in assay [4] was “A (0% ≤ substrate protein remaining % ≤ 80%)”. Besides, in assay [5], the “CK1a substrate protein remaining %” value is recorded as “B (80%< substrate protein remaining %≤ 100%)”. Moreover, the “GSPT1 substrate protein remaining %” value in assay [6] was “A (0% ≤ substrate protein remaining % ≤ 80%)”.
As to `O=C1CCC(N2C(=O)c3ccc(CN4CCN(c5ncccc5C(F)(F)F)CC4)cc3C2=O)C(=O)N1` (stereo not drawn) [GT-06529, 2-(2,6-dioxopiperidin-3-yl)-5-((4-(3-(trifluoromethyl)pyridin-2-yl)piperazin-1-yl)methyl)isoindoline-1,3-dione], the “Weel substrate protein remaining %” value in assay [1] was “A (0% ≤ substrate protein remaining % ≤ 80%)”. Besides, the “IKZF 1 substrate protein remaining %” value in assay [2] was “B (80%< substrate protein remaining %≤ 100%)”. Further, the “IKZF2 substrate protein remaining %” value in assay [3] is “A (0% ≤ substrate protein remaining % ≤ 80%)”. In addition, the “IKZF3 substrate protein remaining %” value in assay [4] is listed as “A (0% ≤ substrate protein remaining % ≤ 80%)”. The “CK1a substrate protein remaining %” value in assay [5] is reported as “B (80%< substrate protein remaining %≤ 100%)”. The “GSPT1 substrate protein remaining %” value in assay [6] was “A (0% ≤ substrate protein remaining % ≤ 80%)”.

Values taken from patent EP4745137A1 (Gluetacs Therapeutics (Shanghai) Co., Ltd., priority 2023, dated 2025).
